Laboratory results from US8921364B2, “Modulators of calcium release-activated calcium channel” (Rhizen Pharmaceuticals SA, priority 2009, dated 2014).
Structures can show the parent of a compound that is named as a salt.

Each molecule was assayed against CRAC channels (Homo sapiens (Human), UniProt Q96D31) (assay: In-vitro CRAC channel inhibition assay in Jurkat cells (thapsigargin-induced calcium influx)). Settings: Jurkat cells, thapsigargin-induced calcium influx.
Format: cell-based
Method: Inhibition of CRAC channels was determined following thapsigargin (Sigma, Cat # T9033) induced endoplasmic calcium release in Jurkat cells. […] Cells were centrifuged and re-suspended in equal volumes ° f Ca^2+ and Mg^2+ free Hanks buffer and Fluo-8 NW dye (ABD Bioquest, Inc., Sunnyvale, Calif.) loading solution at 2×10^5 cells/100 μl/well in 96-well black plate. Plate is incubated at 37° C., 5% CO2 for 30 min followed by further 15 min incubation at room temperature. Test compounds (DMSO stocks diluted in Ca^2+ and Mg^2+ free Hanks buffer) at desired concentrations were added to the wells and incubated for […] Thapsigargin (1 μM final concentration) was added to the wells and incubated for 15 min to inhibit the Sarco-endoplasmic reticulum Ca^2+ ATPase pump thereby depleting endoplasmic calcium and raising cytosolic calcium concentrations. Store-operated calcium entry was initiated by adding extracellular Ca^2+ to a final concentration of 1.8 mM. Fluorescence was monitored over […] on a plate reader (BMG Labtech., Germany) with excitation at 485 nm and an emission wavelength at 520 nm. Data were analyzed using GraphPad Prism. IC50 for each compound was determined based on the percent inhibition of thapsigargin-induced calcium influx into cells.

Chain of CRAC channels (Q96D31 whole entry): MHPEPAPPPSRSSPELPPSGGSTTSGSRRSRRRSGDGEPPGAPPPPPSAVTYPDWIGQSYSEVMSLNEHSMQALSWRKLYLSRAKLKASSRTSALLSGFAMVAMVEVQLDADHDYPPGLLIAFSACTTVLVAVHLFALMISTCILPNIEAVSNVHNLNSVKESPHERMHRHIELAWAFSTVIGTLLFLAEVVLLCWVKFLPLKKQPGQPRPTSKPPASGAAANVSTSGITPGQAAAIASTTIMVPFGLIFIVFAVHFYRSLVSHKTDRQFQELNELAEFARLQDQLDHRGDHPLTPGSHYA

Row | IC50 [nM] | SMILES
1 | 52.6 | Cc1ncsc1C(=O)Nc1ccc(-n2nc(C(F)(F)F)cc2C(F)F)cc1 [Example 126, N-{4-[5-(difluoromethyl)-3-(trifluoromethyl)-1H-pyrazol-1-yl]phenyl}-4-methyl thiazole-5-carboxamide]
2 | 224 | Cc1ncncc1C(=O)Nc1ccc(-n2nc(C3CC3)cc2C2CC2)c(F)c1 [Example 36, N-[4-(3,5-dicyclopropyl-1H-pyrazol-1-yl)-3-fluorophenyl]-4-methylpyrimidine-5-carboxamide]
3 | 81.2 | Cc1ncncc1C(=O)Nc1ccc(-n2nc(C(F)(F)F)cc2C2CC2)c(F)c1 [Example 93, N-{4-[5-cyclopropyl-3-(trifluoromethyl)-1H-pyrazol-1-yl]-3-fluorophenyl}-4-methylpyrimidine-5-carboxamide]
4 | 457 | O=C(Cc1ccccc1)Nc1ccc(-n2nc(C3CC3)cc2C2CC2)cc1 [Example 19, N-[4-(3,5-dicyclopropyl-1H-pyrazol-1-yl)phenyl]-2-phenylacetamide]
5 | 194 | Cc1ncsc1C(=O)Nc1ccc(-n2nc(C(F)(F)F)c(Cl)c2C2CC2)cc1 [Example 80, N-{4-[4-chloro-5-cyclopropyl-3-(trifluoromethyl)-1H-pyrazol-1-yl]phenyl}-4-methylthiazole-5-carboxamide]
6 | 851 | Cc1ncsc1C(=O)Nc1ccc(-n2nc(C3CC3)cc2C2CC2)nc1 [Example 39, N-[6-(3,5-dicyclopropyl-1H-pyrazol-1-yl)pyridin-3-yl]-4-methylthiazole-5-carboxamide hydrochloride]
7 | 35.7 | Cc1nnsc1C(=O)Nc1ccc(-n2nc(C(F)(F)F)cc2C2CC2)c(F)c1 [Example 82, N-{4-[5-cyclopropyl-3-(trifluoromethyl)-1H-pyrazol-1-yl]-3-fluorophenyl}-4-methyl-1,2,3-thiadiazole-5-carboxamide]
8 | 295 | O=C(Nc1cnc(-n2nc(C(F)(F)F)cc2C2CC2)nc1)c1c(F)cccc1F [Example 124, N-{2-[5-cyclopropyl-3-(trifluoromethyl)-1H-pyrazol-1-yl]pyrimidin-5-yl}-2,6-difluorobenzamide]
9 | 62.6 | O=C(Nc1ccc(-n2nc(C(F)(F)F)cc2C2CC2)nc1)c1ccncc1 [Example 113, N-{6-[5-cyclopropyl-3-(trifluoromethyl)-1H-pyrazol-1-yl]pyridin-3-yl}isonicotinamide hydrochloride]
10 | 181 | Cc1nnsc1C(=O)Nc1ccc(-n2nc(C3CC3)c(Cl)c2C2CC2)c(F)c1 [Example 37, N-[4-(4-chloro-3,5-dicyclopropyl-1H-pyrazol-1-yl)-3-fluorophenyl]-4-methyl-1,2,3-thiadiazole-5-carboxamide]
11 | 150 | Cc1nnsc1C(=O)Nc1ccc(-n2nc(C(F)(F)F)cc2C2CC2)nc1 [Example 101, N-{6-[5-cyclopropyl-3-(trifluoromethyl)-1H-pyrazol-1-yl]pyridin-3-yl}-4-methyl-1,2,3-thiadiazole-5-carboxamide]
12 | 34.1 | Cc1ncsc1NC(=O)c1ccc(-n2nc(C(F)(F)F)cc2C2CC2)cc1 [Example 78, 4-[5-cyclopropyl-3-(trifluoromethyl)-1H-pyrazol-1-yl]-N-(4-methylthiazol-5-yl)benzamide]
13 | 48 | Cc1ncsc1CNc1ccc(-n2nc(C(F)(F)F)cc2C2CC2)cc1 [Example 74, 4-[5-cyclopropyl-3-(trifluoromethyl)-1H-pyrazol-1-yl]-N-[(4-methylthiazol-5-yl)methyl]aniline]
14 | 436 | O=C(Nc1ccc(-n2nc(C3CC3)cc2C2CC2)nc1)c1c(F)cccc1F [Example 45, N-[6-(3,5-dicyclopropyl-1H-pyrazol-1-yl)pyridin-3-yl]-2,6-difluorobenzamide hydrochloride]
15 | 124 | Cc1noc(C)c1C(=O)Nc1ccc(-n2nc(C(F)(F)F)cc2C2CC2)cc1 [Example 57, N-{4-[5-cyclopropyl-3-(trifluoromethyl)-1H-pyrazol-1-yl]phenyl}-3,5-dimethylisoxazole-4-carboxamide]
